# Laboratory results taken from PMC8286817, “Identifying SARS-CoV-2 antiviral compounds by screening for small molecule inhibitors of Nsp14 RNA cap methyltransferase” (Biochemical Journal, 2021).
# Structures can show the parent of a compound that is named as a salt. Peptide text beside a SMILES is read from it. * marks the point of attachment. Cbz = O=C(OCc1ccccc1)*
# Target: T1, SARS-CoV-2 nsp14 guanine-N7 methyltransferase (Severe acute respiratory syndrome coronavirus 2, UniProt P0DTD1)
# Assay: not given
# Format: biochemical
# Details: not given
row,Compound,Z-Score in primary screen
1,CCCN1C[C@H](CSC)C[C@@H]2c3cccc4[nH]cc(c34)C[C@H]21 [Pergolide methanesulfonate],3.690
2,Cc1c(C(=O)O)c(O)cc2c1C(=O)c1c(O)c([C@@H]3O[C@H](CO)[C@@H](O)[C@H](O)[C@H]3O)c(O)c(O)c1C2=O [Carminic acid],3.060
3,CC(C)(C)c1cc(C=C(C#N)C#N)cc(C(C)(C)C)c1O [Tyrphostin A9],3.261
4,CN1CCc2cc(Cl)c(O)cc2[C@@H](c2ccccc2)C1.Cl [R(+)-SCH-23390 hydrochloride],3.847
5,NC(N)=NCc1cccc(I)c1.NC(N)=NCc1cccc(I)c1.O=S(=O)(O)O [m-Iodobenzylguanidine hemisulfate],4.530
6,Cc1cncc(CN2CCC(=C3c4ccc(Cl)cc4CCc4cccnc43)CC2)c1.O=C(O)/C=C/C(=O)O [Rupatadine Fumarate],3.745
7,NC(=O)C(=O)O [Sodium Oxamate],3.379
8,CNCCCN1c2ccccc2CCc2ccccc21 [Desipramine hydrochloride],4.460
9,"CCCCC[C@H](O)/C=C/C=C\C/C=C\C=C\[C@@H](O)CCCC(=O)O [5(S),15(S)-DIHETE]",3.436
10,Bioymifi,3.204
11,"Cl.Cl.Cl.Ic1ccc(N2CCN(Cc3c[nH]c4ncccc34)CC2)cc1 [L-750,667 trihydrochloride]",3.788
12,O=C(CCCN1CCC(O)(c2cccc(C(F)(F)F)c2)CC1)c1ccc(F)cc1 [Trifluperidol],5.671
13,CC1(C)CNc2cc(NC(=O)c3cccnc3NCc3ccncc3)ccc21 [Motesanib],3.875
14,CC(C[N+](C)(C)C)OC(N)=O (stereo not drawn) [Carbamyl-beta-methylcholine],3.385
15,Nc1ccc(C(=O)O)cc1 [p-Aminobenzoic acid],2.479
16,CCn1nc(C(=O)O)c(=O)c2cc3c(cc21)OCO3 [Cinoxacin],3.126
17,CCCCCCCCCCCCCC(=O)O[C@@H]1[C@@H](C)[C@@]2(O)[C@@H](C=C(CO)C[C@]3(O)C(=O)C(C)=C[C@@H]23)[C@@H]2C(C)(C)[C@]12OC(C)=O [Phorbol 12-myristate 13-acetate],7.036
18,Nc1nc(OCc2cc(Br)cs2)c2[nH]cnc2n1 [Lomeguatrib],2.697
19,C[N+]1(C)CCC[C@H]1C(=O)[O-].Cl [Stachydine hydrochloride],2.622
20,CCN(CC)CC.Nc1ncnc2c1ncn2[C@@H]1O[C@@H]2COP(O)(=S)O[C@H]2[C@H]1O (stereo partly shown) [Sp-cAMPS triethylamine],3.048
21,CCCCOc1ccc(CC(=O)NO)cc1 [Bufexamac],5.383
22,CNC[C@H](O)[C@@H](O)[C@H](O)[C@H](O)CO [Meglumine],3.529
23,COc1ccc2c(c1)[C@]13CCCC[C@@H]1[C@H](C2)N(C)CC3 [Dextromethorphan],3.036
24,CNCCc1ccc(O)c(O)c1.Cl [N-Methyldopamine hydrochloride],3.906
25,"Brc1c(NC2=NCCN2)ccc2nccnc12 [UK 14,304]",3.074
26,c1ccc(CNc2nc(NCc3ccccc3)c3ccccc3n2)cc1 [DBeQ],4.776
27,C[C@]12CCC(=O)C=C1CC[C@@H]1[C@@H]2[C@@H](O)C[C@@]2(C)[C@H]1CC[C@]2(O)C(=O)CO [Hydrocortisone],4.062
28,O=C1NC(=O)C(c2ccccc2)(c2ccccc2)N1 [Phenytoin sodium],3.651

row,Compound,Z-Score in primary screen
1,O=C(O)CCCCCCC(=O)O [Octanedioic acid],3.256
2,CCC1(C)CC(=O)NC1=O (stereo not shown) [Ethosuximide],3.595
3,CCCCN1CCCCC1C(=O)Nc1c(C)cccc1C (stereo not shown) [Bupivacaine],3.673
4,C[C@@H]1CC[C@H]2[C@@H](C)C(=O)O[C@@H]3O[C@@]4(C)CC[C@@H]1[C@]32OO4 [Artemisisin],2.850
5,Inauhzin,3.833
6,"CC(COc1ccc(/C=C/c2ccccc2)cc1)[N+](C)(C)C.[I-] (stereo not drawn) [N,N,N-trimethyl-1-(4-trans-stilbenoxy)-2-propylammonium iodide]",3.028
7,O=c1c(O)c(-c2cc(O)c(O)c(O)c2)oc2cc(O)cc(O)c12 [Myricetin],6.539
8,C[n+]1ccccc1CC(=O)c1ccc(Br)cc1.[I-] [S 24795],3.557
9,N#Cc1ccc(N2N=C3c4ccc(C(=O)O)cc4CC[C@@H]3[C@@H]2C2CCCC2)cc1Cl [PF-03882845],5.080
10,COc1ccc(C2=N[C@H](c3ccc(Cl)cc3)[C@H](c3ccc(Cl)cc3)N2C(=O)N2CCNC(=O)C2)c(OC(C)C)c1 [Nutlin (3b)],4.552
11,C1=C2CCCN[C@H]2[C@@H]2C[C@H]1[C@H]1CCCCN1C2 [Aloperine],6.366
12,"CCC(Sc1nnc2c(n1)[nH]c1ccccc12)C(=O)N1c2ccccc2Sc2ccccc21 (stereo not shown) [10-[2-(5H-[1,2,4]triazino[5,6-b]indol-3-ylsulfanyl)butanoyl]-10H-phenothiazine]",5.999
13,"CC(N)c1cccc(Cl)c1Cl.Cl (racemic) [(±)-2,3-Dichloro-alpha-methylbenzylamine hydrochloride]",3.186
14,CC(C)[C@H](NC(=O)OCc1ccccc1)C(=O)N[C@H](C=O)Cc1ccccc1 [MDL 28170] (Cbz-Val-Phe-aldehyde),3.310
15,C[C@@H]1O[C@H](C[N+](C)(C)C)C[C@H]1O.[Cl-] (racemic) [(±)-Muscarine chloride],3.736
16,COc1ccc(CCNC[C@H](O)c2ccc(O)cc2)cc1OC [R(-)-Denopamine],5.027
17,CC(C)C(=O)Nc1ccc([N+](=O)[O-])c(C(F)(F)F)c1 [Flutamide],3.970
18,CCN1C[C@]2(C)CC[C@H](O)[C@]34C1[C@@H](C[C@H]23)[C@@]1(O)C[C@H](OC)[C@H]2C[C@@H]4[C@@H]1[C@H]2O [Karakoline],3.794
19,c1ccc2c(c1)N=C(N1CCNCC1)c1ccccc1N2 [DREADD agonist 21],3.333
20,Cl.NC1CCN(c2cccc(Cl)n2)CC1 [SR 57227A],4.099
21,Nc1ncnc2c1ncn2C1CCCO1 (stereo not shown) [SQ 22536],3.378
22,CCCCNc1cc(C(=O)O)cc(S(N)(=O)=O)c1Oc1ccccc1 [Bumetanide],3.246
23,COc1cc2c(cc1OC)CC(=O)N(CCCN(C)C[C@H]1Cc3cc(OC)c(OC)cc31)CC2 [Ivabradine],2.786
24,C[C@H](N)C(=O)N1C[C@H](CCCB(O)O)[C@](N)(C(=O)O)C1 [CB-1158 (dihydrochloride)],4.540
25,CC(Cc1ccc(O)cc1)NCC(O)c1cc(O)cc(O)c1 (stereo not shown) [Fenoterol hydrobromide],3.275
26,"Br.NC1CCc2cc(O)c(O)cc2C1 (stereo not shown) [6,7-ADTN hydrobromide]",3.690
27,O=c1c2ccccc2[se]n1-c1ccccc1 [Ebselen],5.010

# Target: T1, SARS-CoV-2 nsp14 guanine-N7 methyltransferase
# Assay: biochemical
# Format: biochemical
# Details: not given
Compound,IC50 [µM],Inhibition of nsp14 activity (HTRF signal)
O=C(CCCN1CCC(O)(c2cccc(C(F)(F)F)c2)CC1)c1ccc(F)cc1 [Trifluperidol],12.9,–
Nc1nc(OCc2cc(Br)cs2)c2[nH]cnc2n1 [Lomeguatrib],59.8,–
Nc1ncnc2c1ncn2[C@@H]1O[C@H](C[C@@H](N)CC[C@H](N)C(=O)O)[C@@H](O)[C@H]1O [sinefungin],–,inhibited nsp14 activity in a dose-dependent manner

# Same assay, conditions: read-out: Km (Michaelis constant) of substrate for nsp14
row,Compound,Km [µM]
1,Nc1nc2c(ncn2[C@@H]2O[C@H](COP(=O)(O)OP(=O)(O)OP(=O)(O)OC[C@H]3O[C@@H](n4cnc5c(N)ncnc54)[C@H](O)[C@@H]3O)[C@@H](O)[C@H]2O)c(=O)[nH]1 [GpppA],114 ± 21
2,Nc1nc2c(ncn2[C@@H]2O[C@H](COP(=O)(O)OP(=O)(O)OP(=O)(O)O)[C@@H](O)[C@H]2O)c(=O)[nH]1 [GTP],301 ± 110

# Same assay, conditions: read-out: Normalised HTRF50 (inhibition of nsp14 methyltransferase activity)
row,Compound,IC50 [µM]
1,Inauhzin,23
